Source: patent publication US11000033B2, “Ketone or oxime compound, and herbicide” (NISSAN CHEMICAL CORPORATION, priority 2014, dated 2021)

Key:
Assay type in all cases: in vivo
Alopecurus myosuroides = experiment: Test Example 5: herbicidal effect by foliage application, plastic box (symbol J); settings: 320 g/ha, 3 weeks after application
Procedure, shortened: (§1)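 Post-emergence spray; diluvial soil (sterilized), ~1.5 cm seed cover; greenhouse 25–30° C; 14-day-old plants; water-diluted emulsion at predetermined dose; visual score at 3 wk post-treatment.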

Abutilon theophrasti = experiment: Test Example 5: herbicidal effect by foliage application, plastic box (symbol M); settings: 320 g/ha, 3 weeks after application
Procedure, shortened: as §1

Monochoria vaginalis [1] = experiment: Test Example 2: herbicidal activity, application during weed generation in submerged conditions (symbol C); settings: Table 23; application herbicide amount 320 g/ha; grade 0-5 by criteria of Test Example 1
Procedure, shortened: (§2)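 Weeds emerging under flooded conditions were treated with compound formulated as an emulsion and diluted with water to the intended herbicide amount, poured onto the surface of 4 cm standing water. Seeds had been co-sown in alluvial soil; plants grew at 25° C. to 30° C. and were assessed after 3 weeks.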

[2] = tested on: Echinochloa oryzacola Vasing.; experiment: Test Example 2: herbicidal activity, application during weed generation in submerged conditions (symbol A); settings: Table 23; application herbicide amount 320 g/ha; grade 0-5 by criteria of Test Example 1
Procedure, shortened: as §2

Cyperus difformis = experiment: Test Example 3: herbicidal effect by foliage application, Wagner pot (symbol E); settings: application herbicide amount 320 g/ha
Procedure, shortened: (§3)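 Alluvial soil was flooded to a depth of 0.1–0.5 cm, seeded with the weeds and rice, and kept in a greenhouse at 25–30 °C. After 14 days of growth, the foliage received a small-sprayer application of emulsion diluted to the intended rate; injury was rated at 3 weeks.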

Digitaria ciliaris = experiment: Test Example 5: herbicidal effect by foliage application, plastic box (symbol F); settings: 320 g/ha, 3 weeks after application
Procedure, shortened: as §1

soybean = experiment: Test Example 5: effect on crop by foliage application, plastic box (symbol d); settings: 320 g/ha, 3 weeks after application
Procedure, shortened: (§4)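 Crop seed is sown alongside grass and broadleaf weed species in spots in sterilized diluvial soil, then covered to a depth of about 1.5 cm. Plants grow in a greenhouse kept at 25° C. to 30° C.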

transplanted rice plant = experiment: Test Example 1: effect on crop, application before weed generation in submerged conditions (symbol a); settings: application herbicide amount 320 g/ha
Procedure, shortened: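 Rice at 2.5 leaf stage transplanted into submerged soil (4 cm depth) sown with three weed species; herbicide applied before weed emergence.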

[3] = tested on: Echinochloa crus-galli var. crus-galli; experiment: Test Example 5: herbicidal effect by foliage application, plastic box (symbol H); settings: 320 g/ha, 3 weeks after application
Procedure, shortened: as §1

Lolium multiflorum Lam. = experiment: Test Example 5: herbicidal effect by foliage application, plastic box (symbol K); settings: 320 g/ha, 3 weeks after application
Procedure, shortened: as §1

Chenopodium album = experiment: Test Example 5: herbicidal effect by foliage application, plastic box (symbol O); settings: 320 g/ha, 3 weeks after application
Procedure, shortened: as §1

wheat = experiment: Test Example 5: effect on crop by foliage application, plastic box (symbol e); settings: 320 g/ha, 3 weeks after application
Procedure, shortened: as §4

Galium spurium = experiment: Test Example 5: herbicidal effect by foliage application, plastic box (symbol Q); settings: 320 g/ha, 3 weeks after application
Procedure, shortened: as §1

Stellaria media = experiment: Test Example 5: herbicidal effect by foliage application, plastic box (symbol P); settings: 320 g/ha, 3 weeks after application
Procedure, shortened: as §1

Apera spica-venti = experiment: Test Example 5: herbicidal effect by foliage application, plastic box (symbol L); settings: 320 g/ha, 3 weeks after application
Procedure, shortened: as §1

rice plant = experiment: Test Example 5: effect on crop by foliage application, plastic box (symbol b); settings: 320 g/ha, 3 weeks after application
Procedure, shortened: as §4

[4] = tested on: Echinochloa oryzacola Vasing.; experiment: Test Example 1: herbicidal activity, application before weed generation in submerged conditions (symbol A); settings: application herbicide amount 320 g/ha
Procedure, shortened: (§5)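 In a flooded pot test with alluvial soil, the emulsion-formulated compound was diluted with water to a predetermined amount and applied to the floodwater immediately on the sowing day. Pots were held in a greenhouse at 25–30 °C for 3 weeks before each weed was rated.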

Monochoria vaginalis [5] = experiment: Test Example 1: herbicidal activity, application before weed generation in submerged conditions (symbol C); settings: application herbicide amount 320 g/ha
Procedure, shortened: as §5

Setaria viridis = experiment: Test Example 5: herbicidal effect by foliage application, plastic box (symbol G); settings: 320 g/ha, 3 weeks after application
Procedure, shortened: as §1

Scirpus juncoides [6] = experiment: Test Example 1: herbicidal activity, application before weed generation in submerged conditions (symbol B); settings: application herbicide amount 320 g/ha
Procedure, shortened: as §5

[7] = tested on: directly sowed rice plant; experiment: Test Example 3: effect on crop by foliage application, Wagner pot (symbol b); settings: application herbicide amount 320 g/ha
Procedure, shortened: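 Wagner pot (1/10000 are), alluvial soil, submerged 0.1–0.5 cm; sown E. crus-galli var. crus-galli, L. chinensis, C. difformis, rice; greenhouse 25–30 °C.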

Veronica persica = experiment: Test Example 5: herbicidal effect by foliage application, plastic box (symbol R); settings: 320 g/ha, 3 weeks after application
Procedure, shortened: as §1

beet = experiment: Test Example 5: effect on crop by foliage application, plastic box (symbol f); settings: 320 g/ha, 3 weeks after application
Procedure, shortened: as §4

corn = experiment: Test Example 5: effect on crop by foliage application, plastic box (symbol c); settings: 320 g/ha, 3 weeks after application
Procedure, shortened: as §4

Leptochloa chinensis = experiment: Test Example 3: herbicidal effect by foliage application, Wagner pot (symbol D); settings: application herbicide amount 320 g/ha
Procedure, shortened: as §3

Avena fatua = experiment: Test Example 5: herbicidal effect by foliage application, plastic box (symbol I); settings: 320 g/ha, 3 weeks after application
Procedure, shortened: as §1

Amaranthus retroflexus = experiment: Test Example 5: herbicidal effect by foliage application, plastic box (symbol N); settings: 320 g/ha, 3 weeks after application
Procedure, shortened: as §1

[8] = tested on: Echinochloa crus-galli var. crus-galli; experiment: Test Example 3: herbicidal effect by foliage application, Wagner pot (symbol H); settings: application herbicide amount 320 g/ha
Procedure, shortened: as §3

Scirpus juncoides [9] = experiment: Test Example 2: herbicidal activity, application during weed generation in submerged conditions (symbol B); settings: Table 23; application herbicide amount 320 g/ha; grade 0-5 by criteria of Test Example 1
Procedure, shortened: as §2

rapeseed = experiment: Test Example 5: effect on crop by foliage application, plastic box (symbol g); settings: 320 g/ha, 3 weeks after application
Procedure, shortened: as §4

For `CON=C(C)CC1CC(O)=C(c2c(C)cc(C=Cc3ccccc3)cc2C)C1=O` (centres unmarked) [6-072], the “J: Alopecurus myosuroides, herbicidal effect (criteria of Test Example 1)” value (Alopecurus myosuroides) was 0 (Herbicidal ratio of 5% or lower (almost no effect)), the “M: Abutilon theophrasti, herbicidal effect (criteria of Test Example 1)” value (Abutilon theophrasti) was 0 (Herbicidal ratio of 5% or lower (almost no effect)) and the “Herbicidal effect grade, C: Monochoria vaginalis” value (shortened to “Herbicidal effect grade, C”) (Monochoria vaginalis [1]) was 0 (Herbicidal ratio of 5% or lower (almost no effect)). The “Herbicidal effect grade, A: Echinochloa oryzacola Vasing.” value [2] was 1 (Herbicidal ratio of 5% or higher and lower than 20%), the “herbicidal effect on E, grade 0-5” value (Cyperus difformis) was 0 (Herbicidal ratio of 5% or lower (almost no effect)) and the “F: Digitaria ciliaris, herbicidal effect (criteria of Test Example 1)” value (Digitaria ciliaris) was 0 (Herbicidal ratio of 5% or lower (almost no effect)). The “d: soybean, effect on crop (criteria of Test Example 1)” value (soybean) was 0 (Herbicidal ratio of 5% or lower (almost no effect)), the “Effect grade on crop, a: transplanted rice plant” value (transplanted rice plant) was 0 (Herbicidal ratio of 5% or lower (almost no effect)) and the “H: Echinochloa crus-galli var. crus-galli, herbicidal effect (criteria of Test Example 1)” value [3] was 1 (Herbicidal ratio of 5% or higher and lower than 20%). The “K: Lolium multiflorum Lam., herbicidal effect (criteria of Test Example 1)” value (Lolium multiflorum Lam.) was 2 (Herbicidal ratio of 20% or higher and lower than 40%), the “O: Chenopodium album, herbicidal effect (criteria of Test Example 1)” value (Chenopodium album) was 0 (Herbicidal ratio of 5% or lower (almost no effect)) and the “e: wheat, effect on crop (criteria of Test Example 1)” value (wheat) was 0 (Herbicidal ratio of 5% or lower (almost no effect)). The “Q: Galium spurium, herbicidal effect (criteria of Test Example 1)” value (Galium spurium) was 0 (Herbicidal ratio of 5% or lower (almost no effect)), the “P: Stellaria media, herbicidal effect (criteria of Test Example 1)” value (Stellaria media) was 0 (Herbicidal ratio of 5% or lower (almost no effect)) and the “L: Apera spica-venti, herbicidal effect (criteria of Test Example 1)” value (Apera spica-venti) was 0 (Herbicidal ratio of 5% or lower (almost no effect)). The “b: directly sowed rice plant, effect on crop (criteria of Test Example 1)” value (rice plant) was 2 (Herbicidal ratio of 20% or higher and lower than 40%), the “Herbicidal effect grade, A: Echinochloa oryzacola Vasing.” value [4] was 4 (Herbicidal ratio of 70% or higher and lower than 90%) and the “Herbicidal effect grade, C” value (Monochoria vaginalis [5]) was 0 (Herbicidal ratio of 5% or lower (almost no effect)). The “G: Setaria viridis, herbicidal effect (criteria of Test Example 1)” value (Setaria viridis) was 4 (Herbicidal ratio of 70% or higher and lower than 90%), the “Herbicidal effect grade, B: Scirpus juncoides” value (“Herbicidal effect grade, B” below) (Scirpus juncoides [6]) was 0 (Herbicidal ratio of 5% or lower (almost no effect)) and the “effect on crop b (directly sowed rice plant), grade 0-5” value [7] was 0 (Herbicidal ratio of 5% or lower (almost no effect)). The “R: Veronica persica, herbicidal effect (criteria of Test Example 1)” value (Veronica persica) was 0 (Herbicidal ratio of 5% or lower (almost no effect)), the “f: beet, effect on crop (criteria of Test Example 1)” value (beet) was 0 (Herbicidal ratio of 5% or lower (almost no effect)) and the “c: corn, effect on crop (criteria of Test Example 1)” value (corn) was 3 (Herbicidal ratio of 40% or higher and lower than 70%). The “herbicidal effect on D (Leptochloa chinensis), grade 0-5” value (Leptochloa chinensis) was 5 (Herbicidal ratio of 90% or more (almost completely withered)), the “I: Avena fatua, herbicidal effect (criteria of Test Example 1)” value (Avena fatua) was 3 (Herbicidal ratio of 40% or higher and lower than 70%) and the “N: Amaranthus retroflexus, herbicidal effect (criteria of Test Example 1)” value (Amaranthus retroflexus) was 0 (Herbicidal ratio of 5% or lower (almost no effect)). The “herbicidal effect on H (Echinochloa crus-galli var. crus-galli), grade 0-5” value [8] was 5 (Herbicidal ratio of 90% or more (almost completely withered)), the “Herbicidal effect grade, B” value (Scirpus juncoides [9]) was 0 (Herbicidal ratio of 5% or lower (almost no effect)) and the “g: rapeseed, effect on crop (criteria of Test Example 1)” value (rapeseed) was 0 (Herbicidal ratio of 5% or lower (almost no effect)).

In the case of `CON=C(C)CC1CC(O)=C(c2c(C)cc(C#CC(C)(C)O)cc2C)C1=O` (mixture of isomers) [6-036], the “J: Alopecurus myosuroides, herbicidal effect grade” value (Alopecurus myosuroides) is reported as 3 (Herbicidal ratio of 40% or higher and lower than 70%), the “M: Abutilon theophrasti, herbicidal effect grade” value (Abutilon theophrasti) is reported as 0 (Herbicidal ratio of 5% or lower (almost no effect)) and the “Herbicidal effect grade, C” value (Monochoria vaginalis [1]) is reported as 0 (Herbicidal ratio of 5% or lower (almost no effect)). The “Herbicidal effect grade, A: Echinochloa oryzacola Vasing.” value [2] was 3 (Herbicidal ratio of 40% or higher and lower than 70%), the “herbicidal effect on E, grade 0-5” value (Cyperus difformis) was 3 (Herbicidal ratio of 40% or higher and lower than 70%) and the “F: Digitaria ciliaris, herbicidal effect grade” value (Digitaria ciliaris) was 4 (Herbicidal ratio of 70% or higher and lower than 90%). For the same molecule, the “d: soybean, effect on crop grade” value (soybean) was 0 (Herbicidal ratio of 5% or lower (almost no effect)), the “H: Echinochloa crus-galli var. crus-galli, herbicidal effect grade” value [3] was 5 (Herbicidal ratio of 90% or more (almost completely withered)) and the “K: Lolium multiflorum Lam., herbicidal effect grade” value (Lolium multiflorum Lam.) was 5 (Herbicidal ratio of 90% or more (almost completely withered)). For the same molecule, the “O: Chenopodium album, herbicidal effect grade” value (Chenopodium album) was 0 (Herbicidal ratio of 5% or lower (almost no effect)), the “e: wheat, effect on crop grade” value (wheat) was 0 (Herbicidal ratio of 5% or lower (almost no effect)) and the “Q: Galium spurium, herbicidal effect grade” value (Galium spurium) was 0 (Herbicidal ratio of 5% or lower (almost no effect)). The “P: Stellaria media, herbicidal effect grade” value (Stellaria media) was 1 (Herbicidal ratio of 5% or higher and lower than 20%), the “L: Apera spica-venti, herbicidal effect grade” value (Apera spica-venti) was 3 (Herbicidal ratio of 40% or higher and lower than 70%) and the “b: directly sowed rice plant, effect on crop grade” value (rice plant) was 4 (Herbicidal ratio of 70% or higher and lower than 90%). For the same molecule, the “G: Setaria viridis, herbicidal effect grade” value (Setaria viridis) was 4 (Herbicidal ratio of 70% or higher and lower than 90%), the “effect on crop b (directly sowed rice plant), grade 0-5” value [7] was 4 (Herbicidal ratio of 70% or higher and lower than 90%) and the “R: Veronica persica, herbicidal effect grade” value (Veronica persica) was 3 (Herbicidal ratio of 40% or higher and lower than 70%). For the same molecule, the “f: beet, effect on crop grade” value (beet) was 0 (Herbicidal ratio of 5% or lower (almost no effect)), the “c: corn, effect on crop grade” value (corn) was 4 (Herbicidal ratio of 70% or higher and lower than 90%) and the “herbicidal effect on D (Leptochloa chinensis), grade 0-5” value (Leptochloa chinensis) was 5 (Herbicidal ratio of 90% or more (almost completely withered)). For the same molecule, the “I: Avena fatua, herbicidal effect grade” value (Avena fatua) was 3 (Herbicidal ratio of 40% or higher and lower than 70%), the “N: Amaranthus retroflexus, herbicidal effect grade” value (Amaranthus retroflexus) was 0 (Herbicidal ratio of 5% or lower (almost no effect)) and the “herbicidal effect on H (Echinochloa crus-galli var. crus-galli), grade 0-5” value [8] was 4 (Herbicidal ratio of 70% or higher and lower than 90%). For the same molecule, the “Herbicidal effect grade, B” value (Scirpus juncoides [9]) was 0 (Herbicidal ratio of 5% or lower (almost no effect)) and the “g: rapeseed, effect on crop grade” value (rapeseed) was 3 (Herbicidal ratio of 40% or higher and lower than 70%).
